Experimental data taken from patent US9162977B2, “Synthetic ion channels” (The University of Hong Kong, priority 2006, dated 2015).
“Also recorded” adds a separate entry of the source. One block for each compound: values may come before it.

Tests used:
[1] = test system: human embryonic kidney (HEK 293) cells; test: Whole-cell patch-clamp recording of chloride currents; format: cell-based
Description: The whole-cell configuration of the patch-clamp technique was used to examine the electrophysiological properties of the ionic currents induced by Example 2 in human embryonic kidney (HEK 293) cells. HEK 293 cell line originally obtained from the American Type Culture Collection, were cultured in DMEM supplemented with 10% FBS and 100 IU/ml penicillin G and 0.1 mg/ml streptomycin. Cells were grown at 37° C. in a 5% CO2 humidified incubator. Whole-cell chloride currents were recorded by using an EPC 9 patch clamp amplifier (HEKA Elektronik, Lambrecht/Pfalz, Germany) in voltage-clamp mode, controlled by Pulse/PulseFit 8.7 software (HEKA). Patch pipettes (resistance, 3-5 MΩ) were filled with a solution internal pipette solution containing CsCl 140, MgCl2 1, HEPES 10, EGTA 5, Na2ATP 5 (in mmol/L, pH 7.2 with CsOH). The bath solution contained NaCl 140, CsCl 5, CaCl2 1, MgCl2 1, HEPES 10 (in mmol/L, pH 7.4 with CsOH). After gigaohm seals were obtained, the membrane was ruptured with a pulsed negative pressure. Pipette and membrane capacitance were automatically compensated. Series resistance was typically compensated by 70%. […] All macroscopic currents were sampled at 50 kHz and filtered at 5 kHz, and data were analyzed with PulseFit (HEKA). Changes of Cl current were detected from the same cells before and after exposure to the bath solution containing Example 2 at the concentration of 50 nM. […]

[2] = pH-stat fluorometric transport assay (HPTS-loaded liposomes); format: biochemical
Source text: This Example illustrates that the compound of Example 2 mediates chloride release when incorporated into liposomes. The liposome-based pH-stat fluorometric assay is an assay routinely used for identification of physiologically relevant ionophores, which are disclosed in (a) Deng, G., Dewa, T. and Regen, S. L. J. Am. Chem. Soc. 1996, 118, 8975; (b) Schlesinger, P. H., Ferdani, R., Liu, J., Pajewska, J., Pajewski, R., Saito, M., Shabany, H. and Gokel, G. W. J. Am. Chem. Soc. 2002, 124, 1848; (c) Sidorov, V., Kotch, F. W., Abdrakhmanova, G., Mizani, R., Fettinger, J. C. and Davis, J. T. J. Am. Chem. Soc. 2002, 124, 2267; (d) Sidorov, V., Kotch, F. W., Kuebler, J. L., Lam, Y.-F. and Davis, J. T. J. Am. Chem. Soc. 2003, 125, 2840; and (e) Baumeister, B., Sakai, N. and Matile, S. Angew. Chem., Int. Ed. 2000, 39, 1955, all of which are incorporated herein by reference. For example, in this assay, a controlled amount of the base and potential ionophore is added to a suspension of liposomes containing a pH-sensitive dye, 8-hydroxypyrene-1,3,6-trisulfonate (HPTS, pyranine). The resulting pH gradient across the bilayer membrane causes the efflux of hydronium ions or the influx of hydroxide ions and builds up an electrostatic potential. This potential can be compensated by the efflux of anions or influx of cations (H^+/M^+ or OH^−/A^− antiport and H^+/A^− or M^+/OH^− symport mechanisms are possible). If the compound of interest mediates such ion transport, the efflux of hydronium ions or the influx of hydroxide ions continues altering the […] pH and the fluorescence of the reporter dye.
Example 2-mediated chloride release was determined in large unilamellar vesicles (LUVs) of 100 nm average dimension, as reported in Sidorov, V., Kotch, F. W., Abdrakhmanova, G., Mizani, R., Fettinger, J. C. and Davis, J. T. J. Am. Chem. Soc. 2002, 124, 2267. […] Importantly, Example 2 mediated electrolyte exchange with high anion selectivity. It mediated electrolyte exchange in the presence of chloride but not in the presence of sulfate (see FIG. 6).

[3] = Single-channel recording by patch-clamp on giant liposomes; format: biochemical
Source text: Single-channel recording, using patch clamp techniques, is the most critical test for identifying ion channel formation, which is distinguished from other ion transport mechanisms such as ion carriers, and quantifying ion transport efficiency of a membrane channel. The channel-forming activity of Example 2 incorporated in lipid bilayers is examined using patch-clamp technique on giant liposomes.
The two key properties of ion channels in nature are ion selectivity, that is, a channel permits only certain ionic species to flow through its pore, and gating referring to the mechanism of channel opening and closing.

melting point: 137 to 139 °C
Compound: CC(C)CNC(=O)[C@H](CC(C)C)OC(=O)c1cccc(C(=O)O[C@@H](CC(C)C)C(=O)NCC(C)C)c1 [Example 9]

melting point: 175 to 177 °C
Compound: CC(C)CNC(=O)[C@@H](CC(C)C)ONC(=O)c1cccc(C(=O)NO[C@H](CC(C)C)C(=O)NCC(C)C)n1 [Example 7]

melting point: 57 to 59 °C
Compound: CC(C)C[C@@H](ONC(=O)c1cccc(C(=O)NO[C@H](CC(C)C)C(=O)OC(C)(C)C)c1)C(=O)OC(C)(C)C [Example 1]

melting point: 130 to 132 °C
Compound: CC(C)CNC(=O)[C@@H](CC(C)C)ONC(=O)c1ccccc1 [Example 6]

melting point: 88 to 90 °C
Compound: CCCCCCCCCCCCCCCCCCNC(=O)[C@@H](CC(C)C)ONC(=O)c1cccc(C(=O)NO[C@H](CC(C)C)C(=O)NCCCCCCCCCCCCCCCCCC)c1 [Example 5]

melting point: 176 to 178 °C
Compound: CC(C)CNC(=O)[C@@H](CC(C)C)ONC(=O)c1cccc(C(=O)NO[C@H](CC(C)C)C(=O)NCC(C)C)c1 [Example 2]
whole cell (chloride) currents ([1]; 50 nM in bath solution, room temperature, FIG. 9): dramatically increases cell chloride currents; also recorded: large increase
induced whole cell currents in the presence of an anion transport inhibitor ([1]; in the presence of DIDS): not reduced
exchange between extra- and intravesicular electrolytes (chloride release) ([2]; LUVs of 100 nm, NaCl extra- and intravesicular buffers, FIG. 5): rapid, concentration-dependent exchange
transport activity in LUVs loaded with sulfate ([2]; LUVs symmetrically loaded with Na2SO4, FIG. 6): no transport activity was detected
chloride transport across lipid bilayers of chloride-containing liposomes ([2]; LUVs, NaCl extra- and intravesicular buffers, FIG. 7 and FIG. 12): mediates chloride transport across the bilayer
change in conductance or reversal potential ([3]; NMDG-Cl in the bath solution replaced by KCl): no measurable change
ion selectivity of the channels formed ([3]; giant liposomes, patch clamp): chloride selectivity; also recorded: anion selective
gating of the channels formed ([3]; giant liposomes, patch clamp, FIG. 8): voltage dependent gating; also recorded: voltage-gated
primary single-channel conductance ([3]; symmetric 0.2 M N-methyl-glucamine hydrochloride (NMDG-Cl) solutions, compound in bath solution, FIG. 8): 54 pS
channel open probability (Po) and frequency ([3]; upon increasing voltages of lipid bilayers within a physiologically relevant range, FIG. 8): enhanced steeply

melting point: 240 to 242 °C
Compound: CC(C)CNC(=O)[C@H](CC(C)C)NC(=O)c1cccc(C(=O)N[C@@H](CC(C)C)C(=O)NCC(C)C)c1 [Example 8]
